From US8598314B2 (priority 2007, dated 2013)

Assays:
[1] = biological target: T1, endogenously expressed GLP-1 receptor, thyroid c-cell carcinoma line 6-23 (Rattus norvegicus, UniProt P32301); test: GLP-1 cyclase whole cell cAMP assay; type: cell-based
T1 construct: the endogenously expressed GLP-1 receptor; endogenous in cells; host or cells: thyroid c-cell carcinoma line 6-23
T1 sequence (P32301 22-463): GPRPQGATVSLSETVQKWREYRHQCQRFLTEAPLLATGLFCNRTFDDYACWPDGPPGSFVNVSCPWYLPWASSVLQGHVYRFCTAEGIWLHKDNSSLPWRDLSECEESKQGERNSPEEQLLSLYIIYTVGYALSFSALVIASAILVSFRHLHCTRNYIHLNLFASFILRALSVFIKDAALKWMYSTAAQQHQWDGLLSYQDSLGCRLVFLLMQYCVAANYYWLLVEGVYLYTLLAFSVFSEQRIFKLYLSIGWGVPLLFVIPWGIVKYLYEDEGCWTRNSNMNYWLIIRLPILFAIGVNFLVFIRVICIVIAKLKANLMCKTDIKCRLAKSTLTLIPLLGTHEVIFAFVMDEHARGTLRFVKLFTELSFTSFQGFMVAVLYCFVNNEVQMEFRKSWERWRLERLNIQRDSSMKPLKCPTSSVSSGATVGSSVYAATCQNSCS
Procedure: Cells from the thyroid c-cell carcinoma line 6-23 were grown to confluence and harvested by treatment with Versene ([…]). […] Accumulation of cAMP was measured following 30′ conjugate or control agent treatment using an HTRF® cell-based cAMP assay kit (Cisbio-US, Inc., Bedford, Mass.) in 384-well format. The compounds were tested at final concentrations from 1 μM to 10 pM. The cell-conjugate mixture was incubated for 30′ at room temperature, at which time the reaction was terminated by the addition of kit-provided α-cAMP Cryptate solution. Plates were then sealed and stored at room temperature overnight to allow components to come to full equilibrium. cAMP content was then measured by time resolved fluorescence.

ACE from rabbit lung = biological target: T2, ACE from rabbit lung (Oryctolagus cuniculus, UniProt P12822); test: ACE inhibition assay; type: biochemical; conditions: substrate N-benzyloxycarbonyl-Phe-His-Leu-OH 20 μM; read-out: ACE inhibition IC50
T2 construct: ACE from rabbit lung; purchased Sigma Chemical Co; host or cells: rabbit lung tissue
T2 sequence (P12822 34-1310): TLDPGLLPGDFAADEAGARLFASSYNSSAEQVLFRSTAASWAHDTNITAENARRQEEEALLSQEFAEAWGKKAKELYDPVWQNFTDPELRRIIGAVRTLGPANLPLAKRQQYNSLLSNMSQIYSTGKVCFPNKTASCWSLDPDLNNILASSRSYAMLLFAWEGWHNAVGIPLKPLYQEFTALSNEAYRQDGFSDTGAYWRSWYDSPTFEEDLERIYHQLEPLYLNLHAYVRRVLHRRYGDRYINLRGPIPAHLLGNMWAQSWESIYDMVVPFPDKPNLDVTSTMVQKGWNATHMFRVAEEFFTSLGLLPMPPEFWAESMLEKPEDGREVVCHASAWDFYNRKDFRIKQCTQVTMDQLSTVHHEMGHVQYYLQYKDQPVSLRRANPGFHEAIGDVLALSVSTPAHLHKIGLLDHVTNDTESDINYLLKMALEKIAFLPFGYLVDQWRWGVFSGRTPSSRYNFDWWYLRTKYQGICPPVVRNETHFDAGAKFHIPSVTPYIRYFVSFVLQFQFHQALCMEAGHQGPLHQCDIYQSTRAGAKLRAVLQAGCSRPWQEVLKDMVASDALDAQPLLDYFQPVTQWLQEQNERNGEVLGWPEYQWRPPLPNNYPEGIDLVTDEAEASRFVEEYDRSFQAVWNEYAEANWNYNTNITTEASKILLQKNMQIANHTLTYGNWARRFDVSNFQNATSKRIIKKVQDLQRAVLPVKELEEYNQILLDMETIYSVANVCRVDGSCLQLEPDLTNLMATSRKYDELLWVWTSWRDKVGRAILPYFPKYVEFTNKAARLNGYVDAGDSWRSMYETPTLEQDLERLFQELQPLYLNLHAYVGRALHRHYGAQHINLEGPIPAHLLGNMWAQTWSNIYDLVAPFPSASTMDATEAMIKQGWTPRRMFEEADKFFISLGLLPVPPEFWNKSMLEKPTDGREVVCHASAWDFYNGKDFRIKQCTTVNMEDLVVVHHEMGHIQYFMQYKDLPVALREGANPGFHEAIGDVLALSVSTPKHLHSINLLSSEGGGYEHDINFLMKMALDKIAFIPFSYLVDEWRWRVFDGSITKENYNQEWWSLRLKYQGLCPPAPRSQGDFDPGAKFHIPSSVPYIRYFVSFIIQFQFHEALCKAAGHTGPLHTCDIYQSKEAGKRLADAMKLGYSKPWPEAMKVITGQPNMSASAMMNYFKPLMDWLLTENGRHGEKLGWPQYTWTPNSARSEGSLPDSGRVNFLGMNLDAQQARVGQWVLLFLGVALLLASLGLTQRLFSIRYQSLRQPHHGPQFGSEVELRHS
Procedure: Peptide-ACE peptidase inhibitor conjugate compounds were assessed in an ACE inhibition assay using purified ACE enzyme and chromogenic substrates. An ACE stock solution was prepared by dissolving 0.1 unit of enzyme (ACE from rabbit lung, Sigma Chemical Co., St. Louis, Mo.) in 0.640 mL of HEPES buffer (0.1 M, pH=8). A 2 mM stock solution of substrate (N-benzyloxycarbonyl-Phe-His-Leu-OH) dissolved in methanol. The ACE inhibitor compounds were dissolved in phosphate buffer (0.1 M, pH=8) at concentrations of 0.0, 1, 10, 20, 60 and 100 μM. For the inhibition assay, six 2 mL microcentrifuge tubes were prepared containing 1.45 mL of phosphate buffer pH=8, 0.05 mL of 10% NaCl and 0.015 mL of substrate solution. To each microcentrifuge tube was added 0.015 mL of one of the ACE inhibitor compound's stock solutions. The solutions were heated at 37° C. for about 5 minutes. The reaction was started by the addition of 5 μL of the ACE stock solution to each tube mixture (30 seconds in between). The reaction mixtures were incubated at 37° C. After 5 min, 10 min, 30 min and 60 min., aliquots of 100 μL were taken from each tube (each sample was taken in intervals of 30 seconds). Tubes containing the 100 μL sample were floated in a boiling water bath for 5 min. and then cooled. The reaction samples were then treated with 20 μL of 2M NaOH and 20 μL of 0.1% phthaldialdehyde solution. The tubes were shaken for 4 minutes and 10 μL of 6 M HCl were added. […] Initial rates were determined from linear portions of product release curves. Starting substrate concentration in all assays was 20 μM. Apparent binding constants (Kd^app or Ki^app) of inhibitors to ACE were determined by fitting inhibition curves (initial rate vs. inhibitor concentration) to equation:
[formula] where v0 is reaction rate in the absence of inhibitor and [I]-inhibitor concentration. Fits were done by least-squares method using KaleidaGraph 3.6 (Synergy Software, Reading Pa.).

SMILES	EC50 [1]	IC50 (ACE from rabbit lung)
CC[C@H](C)[C@H](NC(=O)[C@H](Cc1ccccc1)NC(=O)[C@H](CC(C)C)NC(=O)[C@H](CCCNC(=N)N)NC(=O)[C@@H](NC(=O)[C@H](C)NC(=O)[C@H](CCC(=O)O)NC(=O)[C@H](CCC(=O)O)NC(=O)[C@H](CCC(=O)O)NC(=O)[C@H](CC(C)C)NC(=O)[C@H](CCC(N)=O)NC(=O)[C@H](CCCCN)NC(=O)[C@H](CO)NC(=O)[C@H](CC(C)C)NC(=O)[C@H](CC(=O)O)NC(=O)[C@H](CO)NC(=O)[C@@H](NC(=O)[C@H](Cc1ccccc1)NC(=O)[C@@H](NC(=O)CNC(=O)[C@H](CCC(=O)O)NC(=O)CNC(=O)[C@@H](N)Cc1c[nH]cn1)[C@@H](C)O)[C@@H](C)O)C(C)C)C(=O)N[C@@H](CCC(=O)O)C(=O)N[C@@H](Cc1c[nH]c2ccccc12)C(=O)N[C@@H](CC(C)C)C(=O)N[C@@H](CCCCN)C(=O)N[C@@H](CC(N)=O)C(=O)NCCCC(=O)NCCOCCOCC(=O)NCCCC(=O)NCCCC[C@H](NC(CCc1ccccc1)C(=O)O)C(=O)N1CCC[C@H]1C(=O)O (stereo partly drawn) [Compound 5605]	1.24 nM	300 nM
CC[C@H](C)[C@H](NC(=O)[C@H](Cc1ccccc1)NC(=O)[C@H](CC(C)C)NC(=O)[C@H](CCCNC(=N)N)NC(=O)[C@@H](NC(=O)[C@H](C)NC(=O)[C@H](CCC(=O)O)NC(=O)[C@H](CCC(=O)O)NC(=O)[C@H](CCC(=O)O)NC(=O)[C@H](CC(C)C)NC(=O)[C@H](CCC(N)=O)NC(=O)[C@H](CCCCN)NC(=O)[C@H](CO)NC(=O)[C@H](CC(C)C)NC(=O)[C@H](CC(=O)O)NC(=O)[C@H](CO)NC(=O)[C@@H](NC(=O)[C@H](Cc1ccccc1)NC(=O)[C@@H](NC(=O)CNC(=O)[C@H](CCC(=O)O)NC(=O)CNC(=O)[C@@H](N)Cc1c[nH]cn1)[C@@H](C)O)[C@@H](C)O)C(C)C)C(=O)N[C@@H](CCC(=O)O)C(=O)N[C@@H](Cc1c[nH]c2ccccc12)C(=O)N[C@@H](CC(C)C)C(=O)N[C@@H](CCCCN)C(=O)N[C@@H](CC(N)=O)C(=O)NCCOCCOCCOCC(=O)NCCOCCOCC(=O)NCCCC[C@H](NC(CCc1ccccc1)C(=O)O)C(=O)N1CCC[C@H]1C(=O)O (stereo partly drawn) [Compound 5606]	0.23 nM	700 nM
CC[C@H](C)[C@H](NC(=O)[C@H](Cc1ccccc1)NC(=O)[C@H](CC(C)C)NC(=O)[C@H](CCCNC(=N)N)NC(=O)[C@@H](NC(=O)[C@H](C)NC(=O)[C@H](CCC(=O)O)NC(=O)[C@H](CCC(=O)O)NC(=O)[C@H](CCC(=O)O)NC(=O)[C@H](CC(C)C)NC(=O)[C@H](CCC(N)=O)NC(=O)[C@H](CCCCN)NC(=O)[C@H](CO)NC(=O)[C@H](CC(C)C)NC(=O)[C@H](CC(=O)O)NC(=O)[C@H](CO)NC(=O)[C@@H](NC(=O)[C@H](Cc1ccccc1)NC(=O)[C@@H](NC(=O)CNC(=O)[C@H](CCC(=O)O)NC(=O)CNC(=O)[C@@H](N)Cc1c[nH]cn1)[C@@H](C)O)[C@@H](C)O)C(C)C)C(=O)N[C@@H](CCC(=O)O)C(=O)N[C@@H](Cc1c[nH]c2ccccc12)C(=O)N[C@@H](CC(C)C)C(=O)N[C@@H](CCCCN)C(=O)N[C@@H](CC(N)=O)C(=O)NCCOCCOCCOCC(=O)NCCCC(=O)NCCCC[C@H](NC(CCc1ccccc1)C(=O)O)C(=O)N1CCC[C@H]1C(=O)O (stereo partly drawn) [Compound 5609]	0.65 nM	1000 nM
